According to ChEMBL document CHEMBL1201862, “PubChem BioAssay data set” (2004):
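Exposure lasted 48 hours, with cells grown in 96-well plates and compounds tested at five concentrations. GI50 marks 50% less growth.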 Active and inactive are the calls of the source. Cut-off read from the data, not from the text of the source: active = GI50 up to about 1.1 µM and inactive = higher.

Legend:
Test in all cases: NCI anticancer screen, dose series, 48 h
[1] = system: SW-620
[2] = system: RPMI-8226
[3] = system: HCT-116
[4] = system: UO-31
[5] = system: SNB-19
[6] = system: SNB-78
[7] = system: NCI-H226
[8] = system: SR
[9] = system: SF-295
[10] = system: OVCAR-5
[11] = system: OVCAR-3
[12] = system: ACHN
[13] = system: OVCAR-8
[14] = system: A498
[15] = system: LOX IMVI
[16] = system: EKVX
[17] = system: KM-20L2
[18] = system: 786-0
[19] = system: SK-OV-3
[20] = system: UACC-257
[21] = system: TK-10
[22] = system: CAKI-1
[23] = system: SF-539
[24] = system: KM12
[25] = system: Malme-3M
[26] = system: A549
[27] = system: HL-60
[28] = system: IGROV-1
[29] = system: COLO 205
[30] = system: HOP-62
[31] = system: HOP-92
[32] = system: M19-MEL
[33] = system: SF-268
[34] = system: HCT-15
[35] = system: SK-MEL-2
[36] = system: SN12C
[37] = system: UACC-62
[38] = system: HCC 2998
[39] = system: HOP-18
[40] = system: SK-MEL-28
[41] = system: HT-29
[42] = system: U-251
[43] = system: NCI-H23
[44] = system: OVCAR-4
[45] = system: RXF 393
[46] = system: K562
[47] = system: DLD-1
[48] = system: MOLT-4
[49] = system: NCI-H460
[50] = system: NCI-H522
[51] = system: M14
[52] = system: CCRF-CEM
[53] = system: LXFL 529
[54] = system: MCF7
[55] = system: NCI/ADR-RES
[56] = system: SNB-75
[57] = system: XF498

For `Cc1nnc(N/N=C2/C(=O)Nc3c(Cl)cc(Cl)cc32)n1N`, the GI50 [1] was > 100 µM (inactive), the GI50 [2] was > 100 µM (inactive) and the GI50 [3] was > 100 µM (inactive). For the same compound, the GI50 [4] was > 100 µM (inactive), the GI50 [5] was > 100 µM (inactive) and the GI50 [6] was > 100 µM (inactive). For the same compound, the GI50 [7] was > 100 µM (inactive), the GI50 [8] was 73.8 µM (inactive) and the GI50 [9] was > 100 µM (inactive). The GI50 [10] was > 100 µM (inactive), the GI50 [11] was > 100 µM (inactive) and the GI50 [12] was > 100 µM (inactive). The GI50 [13] was > 100 µM (inactive), the GI50 [14] was > 100 µM (inactive) and the GI50 [15] was > 100 µM (inactive). For the same compound, the GI50 [16] was > 100 µM (inactive), the GI50 [17] was > 100 µM (inactive) and the GI50 [18] was > 100 µM (inactive). For the same compound, the GI50 [19] was > 100 µM (inactive), the GI50 [20] was > 100 µM (inactive) and the GI50 [21] was > 100 µM (inactive). For the same compound, the GI50 [22] was 81.1 µM (inactive), the GI50 [23] was > 100 µM (inactive) and the GI50 [24] was > 100 µM (inactive). For the same compound, the GI50 [25] was > 100 µM (inactive), the GI50 [26] was > 100 µM (inactive) and the GI50 [27] was > 100 µM (inactive). For the same compound, the GI50 [28] was > 100 µM (inactive), the GI50 [29] was > 100 µM (inactive) and the GI50 [30] was > 100 µM (inactive). The GI50 [31] was > 100 µM (inactive), the GI50 [32] was > 100 µM (inactive) and the GI50 [33] was > 100 µM (inactive). For the same compound, the GI50 [34] was greater than 100 µM, the GI50 [35] was > 100 µM (inactive) and the GI50 [36] was > 100 µM (inactive). The GI50 [37] was > 100 µM (inactive), the GI50 [38] was > 100 µM (inactive) and the GI50 [39] was 73.1 µM (inactive). For the same compound, the GI50 [40] was > 100 µM (inactive), the GI50 [41] was > 100 µM (inactive) and the GI50 [42] was > 100 µM (inactive). For the same compound, the GI50 [43] was > 100 µM (inactive), the GI50 [44] was > 100 µM (inactive) and the GI50 [45] was 59.2 µM (inactive). For the same compound, the GI50 [46] was > 100 µM (inactive), the GI50 [47] was > 100 µM (inactive) and the GI50 [48] was 44.8 µM (inactive). For the same compound, the GI50 [49] was > 100 µM (inactive), the GI50 [50] was 34.2 µM (inactive) and the GI50 [51] was > 100 µM (inactive). The GI50 [52] was 57.5 µM (inactive) and the GI50 [53] was > 100 µM (inactive).

For `CC1OC(O[C@@H]2C=C3CC[C@@H]4[C@H](CC[C@]5(C)[C@@H](c6ccc(=O)oc6)CC[C@]45O)[C@@]3(C)CC2)C(O)C(OC2OC(CO)C(O)C(O)C2O)C1O` (some centres undefined), the GI50 [1] was 0.025 µM (active), the GI50 [2] was 0.025 µM (active) and the GI50 [3] was 0.025 µM (active). The GI50 [4] was 0.025 µM (active), the GI50 [5] was 0.025 µM (active) and the GI50 [6] was 0.025 µM (active). The GI50 [7] was 0.0255 µM (active), the GI50 [9] was 0.025 µM (active) and the GI50 [10] was 0.0275 µM (active). For the same compound, the GI50 [54] was 0.025 µM (active), the GI50 [13] was 0.025 µM (active) and the GI50 [14] was 0.025 µM (active). For the same compound, the GI50 [15] was 0.025 µM (active), the GI50 [16] was 0.025 µM (active) and the GI50 [17] was 0.025 µM (active). For the same compound, the GI50 [20] was 0.025 µM (active), the GI50 [55] was 0.025 µM (active) and the GI50 [24] was 0.025 µM (active). The GI50 [27] was 0.025 µM (active), the GI50 [28] was 0.025 µM (active) and the GI50 [29] was 0.025 µM (active). For the same compound, the GI50 [31] was 0.025 µM (active), the GI50 [32] was 0.025 µM (active) and the GI50 [34] was 0.025 µM. The GI50 [35] was 0.025 µM (active), the GI50 [36] was 0.025 µM (active) and the GI50 [37] was 0.025 µM (active). For the same compound, the GI50 [38] was 0.025 µM (active), the GI50 [40] was 0.025 µM (active) and the GI50 [41] was 0.0281 µM (active). The GI50 [42] was 0.025 µM (active), the GI50 [56] was 0.025 µM (active) and the GI50 [57] was 0.025 µM (active). For the same compound, the GI50 [46] was 0.025 µM (active), the GI50 [47] was 0.025 µM (active) and the GI50 [52] was 0.025 µM (active).
